Measurements: PubChem BioAssay (NCI)
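Assay format: 96-well plates, 48-hour exposure. TGI: total growth inhibition.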

Legend:
Experiment in all cases: NCI-60 cell line screen, 48 h
A498 renal = tested on: A498 renal
MALME-3M melanoma = tested on: MALME-3M melanoma
BT-549 breast = tested on: BT-549 breast
SK-MEL-28 melanoma = tested on: SK-MEL-28 melanoma
TK-10 renal = tested on: TK-10 renal
UACC-62 melanoma = tested on: UACC-62 melanoma
HT29 colon = tested on: HT29 colon
HOP-62 NSCLC = tested on: HOP-62 NSCLC
SNB-19 CNS = tested on: SNB-19 CNS
CCRF-CEM leukemia = tested on: CCRF-CEM leukemia
MDA-N = tested on: MDA-N
K-562 leukemia = tested on: K-562 leukemia
SN12C renal = tested on: SN12C renal
OVCAR-4 ovarian = tested on: OVCAR-4 ovarian
COLO 205 colon = tested on: COLO 205 colon
HS 578T breast = tested on: HS 578T breast
MOLT-4 leukemia = tested on: MOLT-4 leukemia
SK-MEL-2 melanoma = tested on: SK-MEL-2 melanoma
NCI/ADR-RES ovarian = tested on: NCI/ADR-RES ovarian
LOX IMVI melanoma = tested on: LOX IMVI melanoma
SF-268 CNS = tested on: SF-268 CNS
SK-OV-3 ovarian = tested on: SK-OV-3 ovarian
SF-539 CNS = tested on: SF-539 CNS
EKVX NSCLC = tested on: EKVX NSCLC
U251 CNS = tested on: U251 CNS
RPMI-8226 leukemia = tested on: RPMI-8226 leukemia
MDA-MB-231 breast = tested on: MDA-MB-231 breast
HCT-116 colon = tested on: HCT-116 colon
OVCAR-3 ovarian = tested on: OVCAR-3 ovarian
ACHN renal = tested on: ACHN renal
UO-31 renal = tested on: UO-31 renal
KM12 colon = tested on: KM12 colon
A549 NSCLC = tested on: A549 NSCLC
SW-620 colon = tested on: SW-620 colon
RXF 393 renal = tested on: RXF 393 renal
HCC-2998 colon = tested on: HCC-2998 colon
UACC-257 melanoma = tested on: UACC-257 melanoma
SF-295 CNS = tested on: SF-295 CNS
T-47D breast = tested on: T-47D breast
SNB-75 CNS = tested on: SNB-75 CNS
NCI-H23 lung = tested on: NCI-H23 lung
SR leukemia = tested on: SR leukemia
NCI-H522 lung = tested on: NCI-H522 lung
CAKI-1 renal = tested on: CAKI-1 renal
HL-60(TB) leukemia = tested on: HL-60(TB) leukemia
OVCAR-8 ovarian = tested on: OVCAR-8 ovarian
MDA-MB-435 = tested on: MDA-MB-435
HCT-15 colon = tested on: HCT-15 colon
NCI-H226 lung = tested on: NCI-H226 lung
SK-MEL-5 melanoma = tested on: SK-MEL-5 melanoma
IGROV1 ovarian = tested on: IGROV1 ovarian
786-0 renal = tested on: 786-0 renal
MCF7 breast = tested on: MCF7 breast
DU-145 prostate = tested on: DU-145 prostate
PC-3 prostate = tested on: PC-3 prostate
OVCAR-5 ovarian = tested on: OVCAR-5 ovarian
M14 melanoma = tested on: M14 melanoma
HOP-92 NSCLC = tested on: HOP-92 NSCLC
NCI-H460 lung = tested on: NCI-H460 lung

## O=C([C@H](O)[C@@H](O)c1cccc(Cl)c1)C12CC3CC(CC(C3)C1)C2
A498 renal
  TGI: 5.46 µM
MALME-3M melanoma
  TGI: 18.2 µM
BT-549 breast
  TGI: 3.74 µM
SK-MEL-28 melanoma
  TGI: 12.6 µM
TK-10 renal
  TGI: 3.69 µM
UACC-62 melanoma
  TGI: 3.32 µM
HT29 colon
  TGI: 6.17 µM
HOP-62 NSCLC
  TGI: 7.9 µM
SNB-19 CNS
  TGI: 4.07 µM
CCRF-CEM leukemia
  TGI: > 100 µM
MDA-N
  TGI: 5.92 µM
K-562 leukemia
  TGI: > 100 µM
SN12C renal
  TGI: 3.95 µM
OVCAR-4 ovarian
  TGI: 7.49 µM
COLO 205 colon
  TGI: 4.23 µM
HS 578T breast
  TGI: 6.48 µM
MOLT-4 leukemia
  TGI: > 100 µM
SK-MEL-2 melanoma
  TGI: 4.24 µM
NCI/ADR-RES ovarian
  TGI: 5.52 µM
LOX IMVI melanoma
  TGI: 2.65 µM
SF-268 CNS
  TGI: 4.04 µM
SK-OV-3 ovarian
  TGI: 22.8 µM
SF-539 CNS
  TGI: 3.61 µM
EKVX NSCLC
  TGI: 4.38 µM
U251 CNS
  TGI: 2.98 µM
RPMI-8226 leukemia
  TGI: > 22.7 µM
MDA-MB-231 breast
  TGI: 5.44 µM
HCT-116 colon
  TGI: 6.79 µM
OVCAR-3 ovarian
  TGI: 4.37 µM
ACHN renal
  TGI: 3.56 µM
UO-31 renal
  TGI: 3.83 µM
KM12 colon
  TGI: 6.01 µM
A549 NSCLC
  TGI: 5.25 µM
SW-620 colon
  TGI: > 45 µM
RXF 393 renal
  TGI: 3.98 µM
HCC-2998 colon
  TGI: 4.15 µM
UACC-257 melanoma
  TGI: 4.8 µM
SF-295 CNS
  TGI: 11.4 µM
T-47D breast
  TGI: 4.21 µM
SNB-75 CNS
  TGI: 3.7 µM
NCI-H23 lung
  TGI: 3.84 µM
SR leukemia
  TGI: > 100 µM
NCI-H522 lung
  TGI: 5.04 µM
CAKI-1 renal
  TGI: 3.98 µM
HL-60(TB) leukemia
  TGI: 3.79 µM
OVCAR-8 ovarian
  TGI: 4.69 µM
MDA-MB-435
  TGI: 8.46 µM
HCT-15 colon
  TGI: 6.62 µM
NCI-H226 lung
  TGI: 12.3 µM
SK-MEL-5 melanoma
  TGI: 14.8 µM
IGROV1 ovarian
  TGI: 2.68 µM
786-0 renal
  TGI: 3.3 µM
MCF7 breast
  TGI: 2.77 µM
DU-145 prostate
  TGI: 5.08 µM
PC-3 prostate
  TGI: 4.05 µM
OVCAR-5 ovarian
  TGI: 8.79 µM
M14 melanoma
  TGI: 7.16 µM

## Cc1cc(-c2ccccc2)nc2oc(=O)n(C)c12
A498 renal
  TGI: > 100 µM
MALME-3M melanoma
  TGI: > 100 µM
BT-549 breast
  TGI: > 100 µM
SK-MEL-28 melanoma
  TGI: > 100 µM
TK-10 renal
  TGI: > 100 µM
UACC-62 melanoma
  TGI: > 100 µM
HT29 colon
  TGI: > 100 µM
HOP-62 NSCLC
  TGI: > 100 µM
SNB-19 CNS
  TGI: > 100 µM
CCRF-CEM leukemia
  TGI: > 100 µM
MDA-N
  TGI: > 100 µM
K-562 leukemia
  TGI: > 100 µM
SN12C renal
  TGI: > 100 µM
OVCAR-4 ovarian
  TGI: > 100 µM
COLO 205 colon
  TGI: > 100 µM
HS 578T breast
  TGI: > 100 µM
MOLT-4 leukemia
  TGI: > 100 µM
SK-MEL-2 melanoma
  TGI: > 100 µM
NCI/ADR-RES ovarian
  TGI: > 100 µM
LOX IMVI melanoma
  TGI: > 100 µM
HOP-92 NSCLC
  TGI: > 100 µM
SF-268 CNS
  TGI: > 100 µM
SK-OV-3 ovarian
  TGI: > 100 µM
EKVX NSCLC
  TGI: > 100 µM
U251 CNS
  TGI: > 100 µM
MDA-MB-231 breast
  TGI: > 100 µM
HCT-116 colon
  TGI: > 100 µM
OVCAR-3 ovarian
  TGI: > 100 µM
ACHN renal
  TGI: > 100 µM
UO-31 renal
  TGI: > 100 µM
KM12 colon
  TGI: > 100 µM
A549 NSCLC
  TGI: > 100 µM
SW-620 colon
  TGI: > 100 µM
RXF 393 renal
  TGI: > 100 µM
NCI-H460 lung
  TGI: > 100 µM
HCC-2998 colon
  TGI: > 100 µM
UACC-257 melanoma
  TGI: > 100 µM
SF-295 CNS
  TGI: > 100 µM
T-47D breast
  TGI: > 100 µM
NCI-H23 lung
  TGI: > 100 µM
NCI-H522 lung
  TGI: > 100 µM
CAKI-1 renal
  TGI: > 100 µM
HL-60(TB) leukemia
  TGI: > 100 µM
OVCAR-8 ovarian
  TGI: > 100 µM
MDA-MB-435
  TGI: > 100 µM
HCT-15 colon
  TGI: > 100 µM
NCI-H226 lung
  TGI: > 100 µM
SK-MEL-5 melanoma
  TGI: > 100 µM
IGROV1 ovarian
  TGI: > 100 µM
786-0 renal
  TGI: > 100 µM
MCF7 breast
  TGI: > 100 µM
DU-145 prostate
  TGI: > 100 µM
PC-3 prostate
  TGI: > 100 µM
OVCAR-5 ovarian
  TGI: > 100 µM
M14 melanoma
  TGI: > 100 µM

## O=C1CC[C@@]23CC(=O)O[C@@H]2CCCC3C1 (some centres not stated)
MALME-3M melanoma
  TGI: > 100 µM
BT-549 breast
  TGI: > 100 µM
SK-MEL-28 melanoma
  TGI: > 100 µM
TK-10 renal
  TGI: > 100 µM
UACC-62 melanoma
  TGI: > 100 µM
HT29 colon
  TGI: > 100 µM
HOP-62 NSCLC
  TGI: > 100 µM
SNB-19 CNS
  TGI: > 100 µM
CCRF-CEM leukemia
  TGI: > 100 µM
MDA-N
  TGI: > 100 µM
K-562 leukemia
  TGI: > 100 µM
SN12C renal
  TGI: > 100 µM
OVCAR-4 ovarian
  TGI: > 100 µM
COLO 205 colon
  TGI: > 100 µM
HS 578T breast
  TGI: > 100 µM
MOLT-4 leukemia
  TGI: > 100 µM
SK-MEL-2 melanoma
  TGI: > 100 µM
NCI/ADR-RES ovarian
  TGI: > 100 µM
LOX IMVI melanoma
  TGI: > 100 µM
SF-268 CNS
  TGI: > 100 µM
SK-OV-3 ovarian
  TGI: > 100 µM
SF-539 CNS
  TGI: > 100 µM
EKVX NSCLC
  TGI: > 100 µM
U251 CNS
  TGI: > 100 µM
RPMI-8226 leukemia
  TGI: > 100 µM
MDA-MB-231 breast
  TGI: > 100 µM
HCT-116 colon
  TGI: > 100 µM
ACHN renal
  TGI: > 100 µM
UO-31 renal
  TGI: > 100 µM
KM12 colon
  TGI: > 100 µM
A549 NSCLC
  TGI: > 100 µM
SW-620 colon
  TGI: > 100 µM
RXF 393 renal
  TGI: > 100 µM
NCI-H460 lung
  TGI: > 100 µM
HCC-2998 colon
  TGI: > 100 µM
UACC-257 melanoma
  TGI: > 100 µM
SF-295 CNS
  TGI: > 100 µM
T-47D breast
  TGI: > 100 µM
SNB-75 CNS
  TGI: > 100 µM
NCI-H23 lung
  TGI: > 100 µM
SR leukemia
  TGI: > 100 µM
NCI-H522 lung
  TGI: > 100 µM
CAKI-1 renal
  TGI: > 100 µM
HL-60(TB) leukemia
  TGI: > 100 µM
OVCAR-8 ovarian
  TGI: > 100 µM
HCT-15 colon
  TGI: > 100 µM
NCI-H226 lung
  TGI: > 100 µM
SK-MEL-5 melanoma
  TGI: > 100 µM
IGROV1 ovarian
  TGI: > 100 µM
786-0 renal
  TGI: > 100 µM
MCF7 breast
  TGI: > 100 µM
DU-145 prostate
  TGI: > 100 µM
PC-3 prostate
  TGI: > 100 µM
OVCAR-5 ovarian
  TGI: > 100 µM
M14 melanoma
  TGI: > 100 µM
